Laboratory results from patent US12679877B2, “NPRA agonists, compositions, and uses thereof” (PharmaIn Corporation, priority 2017, dated 2026).
Marks after values point to notes of the source that are not given here. No end group written: not given here. *: point of attachment. CH3(CH2)22CO = C24 acyl (CH3(CH2)22CO-), CCCCCCCCCCCCCCCCCCCCCCCC(=O)*; Docosanoyl = CCCCCCCCCCCCCCCCCCCCCC(=O)*; Stearoyl = CCCCCCCCCCCCCCCCCC(=O)*; Lauroyl = CCCCCCCCCCCC(=O)*

How the values were obtained:
[1] = Plasma ANP level by ELISA after s.c. ANP in the same study; type: in vivo, Balb/c mice; settings: ANP 12 mg/Kg s.c., injection at 0 hour and 6 hours; average of all groups with same dose; value (SEM)
Description: An investigation was carried out to determine whether prolonged presence of ANP in the blood would have a sustained pharmacodynamic effect, reflected by elevation of cGMP blood concentration, and to determine whether that elevation would be proportional to the level of ANP. The level of blood cGMP relative to ANP was determined. […] This problem had not been documented in literature and there was no reason to solve this previously unknown problem. […] For this study, 4 groups of Balb/c mice (n=3/group; female, 5-6 weeks old; 18-25 g) were used and the cGMP levels at various time points after ANP administration with and without 2nd ANP administration were evaluated. […] Two subsequent s.c. (subcutaneous) administrations of the ANP formulated in a polymeric excipient (to increase in vivo stability) were evaluated. […] The plasma samples were analyzed for cGMP using the cGMP ELISA kit (GE Healthcare Life Sciences, Marlborough, MA) according to manufacturer's protocol. […] The level of ANP associated with cGMP was also measured to further confirm receptor depletion was the result of lack of responsiveness if any. The associated level of ANP was measured using an ELISA assay kit (GE Healthcare Life Sciences, Marlborough, MA) according to manufacturer's protocol. […]

[2] = tested on: natriuretic peptide receptors (NPRA or NPRB); assay: 2-point blood cGMP evaluation (2 and 6 hours) after 15 mg/Kg s.c., cGMP Direct Biotrak EIA; type: in vivo, CD-1 mice; settings: for In vivo blood cGMP minus baseline, 2 hour (potency) / In vivo blood cGMP minus baseline, 6 hour (receptor depletion): 15 mg/Kg s.c. in mice (n=3), minus baseline 30 pmol/ml (n=12); for In vivo blood cGMP minus baseline, 2 hour (potency): 2 hours after dosing; for In vivo blood cGMP minus baseline, 6 hour (receptor depletion): 6 hours after dosing; for activity / potency compared to ANP, in words (2 hour data in Table 2) / apparent receptor depletion/internalization, in words (6 hour data in Table 2): 15 mg/Kg s.c. in mice, blood cGMP
Description: Various derivatives of ANP were made and screened for increase in vivo potency while limiting the apparent receptor depletion effects (or perhaps can act on another cGMP enhancing receptors) by looking at the level of blood cGMP at specific time points. […] Various derivatives were made and tested in vivo to determine the level of blood cGMP at 2 hours and 6 hours after subcutaneous administration of 15 mg/Kg in mice (which was allometrically equivalent to human dose of 1.5 mg/Kg) with the goal of finding derivatives that were therapeutically useful for increasing blood cGMP.
For 2-point cGMP evaluation of various derivatives, test samples were dissolved in water (Lonza, Wakersville, MD) before being lyophilized. Prior to use, the lyophilized test sample was dissolved in saline then 15 mg/Kg was injected subcutaneously into female CD-1 mice 6-8 weeks (n=3). Blood samples were collected at 2 and 6 hours with K2EDTA blood collection tube. The collection tube was then centrifuged at 13,000 rpm for 10 minutes at 4° C. to separate plasma. The plasma was analyzed using the cGMP Direct Biotrak EIA (GE Healthcare Life Sciences, Marlborough, MA). Note that by using allometric scaling at exponent of 0.7 [dose in other species=mice dose/((mouse weight/weight of average other species)^0.7)], the 15 mg/Kg in mice is equivalent to about 7.5 mg/Kg rat dose, about 2.5 mg/Kg dog dose, and 1.5 mg/Kg human dose. For the purpose the present disclosure, the 15 mg/Kg in mice as presented in the relevant data examples, should be understood as equivalent to about 7.5 mg/Kg rat dose, which is equivalent to about 2.5 mg/Kg dog dose, which is equivalent to about 1.5 mg/Kg human dose. Because the mice cGMP response to 15 mg/Kg dose of the newly discovered derivatives (see Table 2) was quite high, it would be prudent to use daily doses that are lower than 15 mg/Kg for mice, 7.5 mg/Kg for rat, 2.5 mg/Kg for dog, and 1.5 mg/Kg for human since any higher dose may result in too much increase in cGMP that can result in too much or even dangerous drop in blood pressure unless formulated in a very slow release delivery system. In fact based on cGMP response it was more preferable to use daily doses that are lower than […], 1.5 mg/Kg for rat, 0.5 mg/Kg for dog, and 0.3 mg/Kg for human. Additionally, the level of blood cGMP is preferably between 1.5 to 3-times of the normal baseline level. The blood or plasma cGMP normal baseline level was about 20-50 pmol/ml but could vary slightly depending on the assay kit used to measure the level.

| Compound | 2 hrs. ANP level [1] | In vivo blood cGMP minus baseline, 2 hour (potency) [2] [µM] | In vivo blood cGMP minus baseline, 6 hour (receptor depletion) [2] [pmol/mL] | activity / potency compared to ANP, in words (2 hour data in Table 2) [2] | apparent receptor depletion/internalization, in words (6 hour data in Table 2) [2] |
| --- | --- | --- | --- | --- | --- |
| CC[C@H](C)[C@@H]1NC(=O)[C@H](CCCNC(=N)N)NC(=O)[C@H](CC(=O)O)NC(=O)[C@H](CCSC)NC(=O)[C@H](CCCNC(=N)N)NC(=O)CNC(=O)CNC(=O)[C@H](Cc2ccccc2)NC(=O)[C@@H](NC(=O)[C@H](CO)NC(=O)[C@H](CO)NC(=O)[C@H](CCCNC(=N)N)NC(=O)[C@H](CCCNC(=N)N)NC(=O)[C@H](CC(C)C)NC(=O)[C@@H](N)CO)CSSC[C@@H](C(=O)N[C@@H](CC(N)=O)C(=O)N[C@@H](CO)C(=O)N[C@@H](Cc2ccccc2)C(=O)N[C@@H](CCCNC(=N)N)C(=O)N[C@@H](Cc2ccc(O)cc2)C(=O)O)NC(=O)CNC(=O)[C@H](CC(C)C)NC(=O)CNC(=O)[C@H](CO)NC(=O)[C@H](CCC(N)=O)NC(=O)[C@H](C)NC(=O)CNC1=O [SEQ ID NO. 1] | 67.24 (6.92)* ng/ml | – | – | – | – |
| GGLSKGCFGLKLDRIGSMSGLGC (listed as Homo Sapiens) [SEQ ID NO. 58] | – | 0.02709 | 5.10 | no loss activity compared to ANP | – |
| CH3(CH2)20COKKKKGGGSLRRSSCFGGRMDRIGAQSGLGCNSFRY (Docosanoyl-KKKKGGGSLRRSSCFGGRMDRIGAQSGLGCNSFRY; not fully specified (bridges); printed as CH3(CH2)20COKKKKGGGSLRRSSCFGGRMDRIGAQSGLGCNSFRY; cysteine pairing not given here; listed as Homo Sapiens) [SEQ ID NO. 94] | – | 0.2638 | 255.4 | – | – |
| CH3(CH2)10CO-KKKKGGGSLRRSSCFGGRMDRIGAQSGLGCNSFRY (Lauroyl-KKKKGGGSLRRSSCFGGRMDRIGAQSGLGCNSFRY; not fully specified (bridges); printed as CH3(CH2)10CO-KKKKGGGSLRRSSCFGGRMDRIGAQSGLGCNSFRY; cysteine pairing not given here; listed as Homo Sapiens) [SEQ ID NO. 15] | – | 0.06052 | 3.36 | increased potency | prevented apparent receptor depletion/internalization |
| CH3(CH2)16CO-RRR-SGRGSGCFGGRMDRIGAQSGLGCNSFRY (Stearoyl-RRRSGRGSGCFGGRMDRIGAQSGLGCNSFRY; not fully specified (bridges); printed as CH3(CH2)16CO-RRR-SGRGSGCFGGRMDRIGAQSGLG; cysteine pairing not given here; listed as Homo Sapiens) [SEQ ID NO. 38] | – | 0.03356 | 7.97 | limited increase in activity | – |
| CH3(CH2)16CO-KKKKGGGSLRRSSCFGGRMDRIGAQSGLGCNSFRY (Stearoyl-KKKKGGGSLRRSSCFGGRMDRIGAQSGLGCNSFRY; not fully specified (bridges); printed as CH3(CH2)16CO-KKKKGGGSLRRSSCFGGRMDRIGAQSGLGCNSFRY; cysteine pairing not given here; listed as Homo Sapiens) [SEQ ID NO. 18] | – | 0.35517 | 231.65 | increased potency | prevented apparent receptor depletion/internalization |
| CH3(CH2)16CO-KKKGGGSLRRSSCFGGRMDRIGAQSGLGCNSFRY (Stearoyl-KKKGGGSLRRSSCFGGRMDRIGAQSGLGCNSFRY; not fully specified (bridges); printed as CH3(CH2)16CO-KKKGGGSLRRSSCFGGRMDRIGAQSGLGCNSFRY; cysteine pairing not given here; listed as Homo Sapiens) [SEQ ID NO. 14] | – | 0.57425 | 255.75 | increased potency | – |
| CH3(CH2)22COKKKKGGGSLRRSSCFGGRMDRIGAQSGLGCNSFRY ({CH3(CH2)22CO}-KKKKGGGSLRRSSCFGGRMDRIGAQSGLGCNSFRY; not fully specified (bridges); printed as CH3(CH2)22COKKKKGGGSLRRSSCFGGRMDRIGAQSGLGCNSFRY; cysteine pairing not given here; listed as Homo Sapiens) [SEQ ID NO. 95] | – | 0.2608 | 245.6 | – | – |
